1 compound from paper PMC12250071, “Cloning, Expression and Functional Characterization of V. vinifera CAT2 Arginine Transporter” (International Journal of Molecular Sciences, 2025) can be followed below.

The assay concerns the target T1, VvCAT2.
T1 construct: gene CAT2; full-length, C-terminal 6His, reconstituted in proteoliposomes
As to the kind of experiment: competitive inhibition of [3H]arginine uptake in proteoliposomes with purified transporter (Lineweaver-Burk); also transported as [3H]ornithine. The class given is biochemical, Vitis vinifera.

Molecules are shown by their SMILES.

By Ki is commonly meant a dissociation constant, usually derived from enzyme kinetics or from competition with a known ligand.

As for `NCCC[C@H](N)C(=O)O` [ornithine], the affinity corresponds to a Ki of 2200 ± 500 µM.
